Consider two compounds from publication PMC4366150, “Inhibiting EGFR Dimerization Using Triazolyl-Bridged Dimerization Arm Mimics” (PLoS ONE, 2015).

Structures are written as SMILES. Positions of bridges follow the written chain, without caps; N, C: chain ends. Non-standard residues stand in square brackets, D forms with d. Residues, ends and D or L forms follow the SMILES beside them. Triazole bridges read from a SMILES are 1,4-linked. *: point of attachment. 5FAM = O=C1OC2(c3ccc(O)cc3Oc3cc(O)ccc32)c2ccc(C(=O)*)cc21; Aha = [N-]=[N+]=NCC[C@H](N)C(=O)O; Nle = CCCC[C@H](N)C(=O)O; Pra = C#CC[C@H](N)C(=O)O; βAla = NCCC(=O)O

Common to all, as to assay type: cell-based
One assay has as its system EGFR p-Tyr1068. The experiment in a line: EGFR phosphorylation (Tyr1068) in MDA-MB-231 cells, western blot. The following applies: 30 min pretreatment, 50 ng/mL EGF 5 min. The procedure:
(§1) The EDA peptides were first tested to see if they could downregulate EGFR activation. Receptor activation was monitored as a function of EGFR autophosphorylation on Tyr1068 in intact MDA-MB-231 cells (Fig. 5a and b and S3 Fig.). The receptor was stimulated with EGF for 5 min following a 30 min peptide pretreatment.
Fig 5 EDA2 down-regulates activated EGFR and reduces cell viability. (a) Cells were stimulated with 50 ng/mL EGF for 5 min in the presence or absence of EDA peptides, followed by western blotting. An apparent decrease in phosphorylated EGFR was observed when treated with EDA2. Vertical lines indicate non-adjacent samples from the same western blot. […] Data is plotted as the average of at least three experiments, where error bars represent SEM. * p < 0.05, ** p < 0.01 relative to the EGF-stimulated control. […] (c) A panel of cell lines was dosed daily with EDA2 or gefitinib for 5 days, and viability was quantified using the Cell Titer Blue assay. […]
Proteins were separated by 8% SDS-PAGE then transferred onto PVDF membrane. […] Bands were visualized by chemiluminescence and quantified using Licor Image Studio Lite. […] Significance values were calculated using two-way ANOVA with Bonferonni multiple-comparison test. […] Significance values were calculated using one-way ANOVA with Bonferonni multiple-comparison test. […]
A general note: In western blotting, separated proteins are transferred to a membrane and probed.

The test system of a further assay is MDA-MB-231 cells. The experiment in a line: Cell viability, Cell Titer Blue, MDA-MB-231. The following applies: 6.25 μM, dosed daily for 5 days, average of quadruplicates. The procedure:
(§2) Fig 5 EDA2 down-regulates activated EGFR and reduces cell viability. (a) Cells were stimulated with 50 ng/mL EGF for 5 min in the presence or absence of EDA peptides, followed by western blotting. An apparent decrease in phosphorylated EGFR was observed when treated with EDA2. Vertical lines indicate non-adjacent samples from the same western blot. […] Data is plotted as the average of at least three experiments, where error bars represent SEM. * p < 0.05, ** p < 0.01 relative to the EGF-stimulated control. All remaining means are not significant (p > 0.05) relative to the EGF-stimulated control. (c) A panel of cell lines was dosed daily with EDA2 or gefitinib for 5 days, and viability was quantified using the Cell Titer Blue assay. […]
(§3) Since EDA2 appeared to downregulate EGFR phosphorylation, we sought to determine whether this activity could also lead to a decrease in cell viability (Fig. 5c). Three diverse, EGFR-expressing cell lines (MDA-MB-231, PC-3, and BxPC-3) were dosed daily with EDA2 over a 0–50 μM concentration range over a five-day time course, after which cell viability was quantified using the Cell Titer Blue assay. […]
(§4) MDA-MB-231, PC-3, or Bx-PC3 cells were seeded at 7,500 cells/well in a 96 well plate and allowed to adhere in RPMI-1640 containing 1% FBS. […] Fluorescence was quantified using 530 nm excitation and 590 nm emission filters. […]
Background: Resazurin is reduced to fluorescent resorufin, in cell work by metabolically active cells.

The next assay deals with T1, total EGFR (Homo sapiens, UniProt P00533).
T1 construct: EGFR autophosphorylation on Tyr1068 in intact MDA-MB-231 cells; endogenous in cells; host or cells: MDA-MB-231 (ATCC)
The assay is described as follows: Total EGFR protein levels in MDA-MB-231 cells, western blot. Conditions: peptide 30 min, 50 ng/mL EGF 5 min, western blot normalized to tubulin, average of two experiments. The procedure:
as §1
While EDA2 downregulates receptor phosphorylation, we also wanted to investigate whether EGFR dimerization itself was inhibited. As a strategy to measure the number of detectable EGFR dimers in intact cells, a quantitative Proximity Ligation Assay (PLA) was performed (Fig. 6). Cells were stimulated with EGF in the presence or absence of EDA2 or its scramble control (EDA2-Scr). […] Fluorescence microscopy was used to visualize the DAPI and PLA signals.
Proteins were separated by 8% SDS-PAGE then transferred onto PVDF membrane. […] Bands were visualized by chemiluminescence and quantified using Licor Image Studio Lite. […] Significance values were calculated using two-way ANOVA with Bonferonni multiple-comparison test. […] Significance values were calculated using one-way ANOVA with Bonferonni multiple-comparison test.
Supplementary file pone.0118796.s004.tif: S4 Fig The effect of EDA2 and its controls on total EGFR protein levels in the cell. […] Cells were immediately lysed and total EGFR levels were analyzed by western blotting. […]

In a further assay the test system is PC-3 cells. The experiment in a line: Cell viability, Cell Titer Blue, PC-3. Conditions: 6.25 μM, dosed daily for 5 days, average of quadruplicates. Here is the method:
as §2, §3, §4

Another assay relates to BxPC-3 cells. The experiment in a line: Cell viability, Cell Titer Blue, BxPC-3. Conditions: 6.25 μM, dosed daily for 5 days, average of quadruplicates. Here is the method:
as §2, §3, §4

As to `CCCC[C@H](NC(=O)[C@H](CCC(N)=O)NC(=O)[C@H](Cc1ccc(O)cc1)NC(=O)[C@@H](NC(=O)[C@@H](NC(=O)[C@@H]1CCCN1C(=O)[C@H](CC(N)=O)NC(=O)[C@H](Cc1ccc(O)cc1)NC(=O)[C@H](C)NC(=O)CCNC(=O)c1ccc2c(c1)C(=O)OC21c2ccc(O)cc2Oc2cc(O)ccc21)[C@@H](C)O)[C@@H](C)O)C(=O)N[C@@H](C)C(N)=O` [non-modified control, reference compound] ({5FAM-βAla}-AYNPTTYQ[Nle]A-NH2), in the assay with EGFR p-Tyr1068 (0.05, 0.5 or 5 μM peptide, western blot), the “effect on EGFR phosphorylation (Tyr1068) (in words)” value is listed as “no inhibitory effect”.

As for `CCCC[C@@H]1NC(=O)[C@H](CCC(N)=O)NC(=O)[C@H](Cc2ccc(O)cc2)NC(=O)[C@H]([C@@H](C)O)NC(=O)[C@H]([C@@H](C)O)NC(=O)[C@@H]2CCCN2C(=O)[C@H](CC(N)=O)NC(=O)[C@H](Cc2ccc(O)cc2)NC(=O)[C@@H](NC(=O)c2ccc3c(c2)C(=O)OC32c3ccc(O)cc3Oc3cc(O)ccc32)Cc2cn(nn2)CC[C@@H](C(N)=O)NC1=O` [EDA2] (5FAM-[Pra]YNPTTYQ[Nle][Aha]-NH2; triazole 1-10), the entries for the “reduction of cell viability” value in the assay on MDA-MB-231 cells, with PC-3 cells and in the assay on BxPC-3 cells were 50%, 72% and 34%, respectively. Also, on total EGFR, the “effect on EGFR expression (total EGFR) (in words)” value was “no effect”. For the same compound, the “reduction of EGFR phosphorylation (Tyr1068) compared to untreated cells” value in the assay with EGFR p-Tyr1068 (5 μM peptide, normalized to tubulin, average of at least three experiments) was “greater than 60%”.
